The source made the active and inactive calls. No cut-off for these calls is given here.
Columns and labels:
[1] = tested on: Caco-2; test: Inhibition of ATPase measured as ATP availability in Caco-2 cells at 20 nM after 60 mins relative to control; assay type: functional, Homo sapiens; design: scale not given: the % may be the effect or the level left
[2] = tested on: Caco-2; test: Inhibition of ATPase measured as ATP availability in Caco-2 cells at 20 nM after 120 mins relative to control; assay type: functional, Homo sapiens; design: scale not given: the % may be the effect or the level left
[3] = tested on: Caco-2; test: Inhibition of ATPase measured as ATP availability in Caco-2 cells at 20 nM after 90 mins relative to control; assay type: functional, Homo sapiens; design: scale not given: the % may be the effect or the level left
[4] = tested on: Caco-2; test: Inhibition of vinblastine-induced ATPase activation in Caco-2 cells; assay type: functional, Homo sapiens
[5] = tested on: NCI/ADR-RES; test: Cytotoxicity against MCF7/Adr cells at 100 uM after 48 hrs; assay type: functional, Homo sapiens
[6] = molecular target: D(2) dopamine receptor (Homo sapiens, UniProt P14416); test: Binding affinity to D2 receptor
[7] = molecular target: T1, 5-hydroxytryptamine receptor 1A (Homo sapiens, UniProt P08908); test: Binding affinity to 5HT1A receptor
T1 sequence (P08908 whole entry): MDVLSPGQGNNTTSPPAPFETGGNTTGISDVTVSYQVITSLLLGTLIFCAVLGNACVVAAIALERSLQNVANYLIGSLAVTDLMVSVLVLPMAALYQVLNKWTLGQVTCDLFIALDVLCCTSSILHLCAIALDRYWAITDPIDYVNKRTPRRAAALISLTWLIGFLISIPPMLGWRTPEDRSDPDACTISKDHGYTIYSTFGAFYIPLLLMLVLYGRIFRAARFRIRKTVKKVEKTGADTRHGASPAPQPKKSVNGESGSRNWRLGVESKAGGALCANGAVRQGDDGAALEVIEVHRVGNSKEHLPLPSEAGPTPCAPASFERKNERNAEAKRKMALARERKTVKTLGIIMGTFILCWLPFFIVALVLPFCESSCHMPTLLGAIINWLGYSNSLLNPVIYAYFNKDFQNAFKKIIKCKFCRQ

[8] = molecular target: T2, ATP-dependent translocase ABCB1 (Homo sapiens, UniProt P08183); test: Inhibition of Pgp measured as doxorubicin accumulation in MCF7/Adr cells at 20 nM by flow cytometry; assay type: functional, cell-based; conditions: nci/adr-res, 0.02 µM
[9] = tested on: Caco-2; test: Inhibition of ATPase measured as increase in ATP level in Caco-2 cells at 20 uM relative to vinblastine after 120 mins; assay type: functional, Homo sapiens; design: scale not given: the % may be the effect or the level left
[10] = molecular target: T2, ATP-dependent translocase ABCB1; test: Inhibition of Pgp measured as inhibition of [3H]vinblastine basolateral to apical transport in Caco-2 cells; assay type: functional, cell-based

T2 sequence (P08183 whole entry): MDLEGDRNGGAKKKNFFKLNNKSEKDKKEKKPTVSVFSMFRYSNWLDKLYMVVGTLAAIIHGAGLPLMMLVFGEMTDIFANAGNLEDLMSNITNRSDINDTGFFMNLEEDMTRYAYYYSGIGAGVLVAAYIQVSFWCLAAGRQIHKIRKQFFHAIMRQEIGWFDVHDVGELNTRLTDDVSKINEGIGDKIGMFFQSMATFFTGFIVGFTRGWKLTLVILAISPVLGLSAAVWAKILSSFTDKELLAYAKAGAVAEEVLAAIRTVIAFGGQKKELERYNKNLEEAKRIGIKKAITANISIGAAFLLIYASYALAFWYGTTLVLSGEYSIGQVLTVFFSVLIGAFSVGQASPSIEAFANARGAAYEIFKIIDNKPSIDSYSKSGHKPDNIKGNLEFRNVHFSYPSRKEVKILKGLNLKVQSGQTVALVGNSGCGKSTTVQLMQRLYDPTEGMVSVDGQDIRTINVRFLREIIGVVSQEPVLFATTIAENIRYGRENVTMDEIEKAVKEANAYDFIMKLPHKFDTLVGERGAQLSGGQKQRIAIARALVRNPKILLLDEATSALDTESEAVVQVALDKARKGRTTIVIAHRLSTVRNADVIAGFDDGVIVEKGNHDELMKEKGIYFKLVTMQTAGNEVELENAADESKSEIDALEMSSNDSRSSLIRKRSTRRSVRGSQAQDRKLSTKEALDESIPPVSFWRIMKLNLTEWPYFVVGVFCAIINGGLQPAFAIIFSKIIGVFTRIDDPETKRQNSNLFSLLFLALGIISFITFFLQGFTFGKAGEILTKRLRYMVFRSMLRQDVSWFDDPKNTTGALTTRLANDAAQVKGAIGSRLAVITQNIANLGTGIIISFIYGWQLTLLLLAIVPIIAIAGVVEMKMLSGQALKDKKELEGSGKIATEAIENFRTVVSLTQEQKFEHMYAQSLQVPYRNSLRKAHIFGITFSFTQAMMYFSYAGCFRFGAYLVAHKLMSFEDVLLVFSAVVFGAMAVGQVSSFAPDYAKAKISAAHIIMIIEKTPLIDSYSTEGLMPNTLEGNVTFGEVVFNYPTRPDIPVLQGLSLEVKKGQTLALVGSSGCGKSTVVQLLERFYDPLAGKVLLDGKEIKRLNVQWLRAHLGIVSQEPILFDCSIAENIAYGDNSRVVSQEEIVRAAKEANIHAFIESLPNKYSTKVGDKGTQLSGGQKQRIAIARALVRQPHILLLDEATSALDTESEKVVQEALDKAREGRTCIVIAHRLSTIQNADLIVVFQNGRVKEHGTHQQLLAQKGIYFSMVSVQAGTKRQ
Chain of D(2) dopamine receptor (P14416 whole entry): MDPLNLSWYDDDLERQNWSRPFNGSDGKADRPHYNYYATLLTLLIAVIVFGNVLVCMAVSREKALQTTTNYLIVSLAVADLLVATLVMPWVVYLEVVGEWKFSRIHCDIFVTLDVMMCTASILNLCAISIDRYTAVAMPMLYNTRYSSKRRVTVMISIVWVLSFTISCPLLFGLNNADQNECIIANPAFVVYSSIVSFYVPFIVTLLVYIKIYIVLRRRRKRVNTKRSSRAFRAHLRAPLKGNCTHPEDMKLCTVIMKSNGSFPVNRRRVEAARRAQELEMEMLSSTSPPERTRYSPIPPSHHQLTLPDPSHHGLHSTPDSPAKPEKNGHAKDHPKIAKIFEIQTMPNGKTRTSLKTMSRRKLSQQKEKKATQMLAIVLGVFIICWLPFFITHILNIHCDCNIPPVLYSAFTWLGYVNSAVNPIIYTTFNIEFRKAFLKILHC

Row | Compound | Ki [6] [µM] | Ki [7] [µM] | Activity [8] | EC50 [10] [µM] | Activity [1] [%] | Activity [2] [%] | Activity [3] [%] | Activity [4] [µM] | Activity [5] [%] | Activity ([4]; Homo sapiens) | Activity [9] [%]
1 | CC[C@]1(O)C[C@@H]2CN(CCc3c([nH]c4ccccc34)[C@@](C(=O)OC)(c3cc4c(cc3OC)N(C)[C@H]3[C@@](O)(C(=O)OC)[C@H](OC(C)=O)[C@]5(CC)C=CCN6CC[C@]43[C@@H]65)C2)C1 [VINBLASTINE] |  |  |  |  | 81 | 42 | 72 |  |  |  | 
2 | COc1ccc(CCN(C)CCCC(C#N)(c2ccc(OC)c(OC)c2)C(C)C)cc1OC (centres undefined) |  |  |  |  |  |  |  |  | 95 |  | 
3 | COc1cc2c(cc1OC)CN(CCc1ccc(NC(=O)c3cccc4c(=O)c5cccc(OC)c5[nH]c34)cc1)CC2 |  |  |  |  |  |  |  |  |  | inactive | 
4 | c1ccc(CCc2ccccc2OCc2cccnc2)cc1 | 5 | 5 |  | 125 |  |  |  | 100 | 8 |  | 
5 | c1ccc(CCc2ccccc2OCc2ccccc2)cc1 | 5 | 5 |  |  |  |  |  | 50 | 8 |  | 
6 | COc1cccc(CCc2ccccc2OCc2cccc(OC)c2)c1 | 5 | 5 | Active | 17.2 |  |  |  |  | 8 | inactive | 41

Second part, led by results:

Row | Ki [6] [µM] | Ki [7] [µM] | Activity [8] | EC50 [10] [µM] | Compound | Activity [1] [%] | Activity [2] [%] | Activity [3] [%] | Activity [4] [µM] | Activity [5] [%] | Activity ([4]; Homo sapiens) | Activity [9] [%]
7 | 5 | 5 |  |  | COc1cccc(CCc2ccccc2OCc2cccnc2)c1 |  |  |  | 400 | 8 |  | 
8 | 5 | 5 | Active | 27.6 | COc1cccc(CCc2ccccc2OCc2ccccn2)c1 |  |  |  |  | 8 | inactive | 41
9 | 5 | 5 |  | 92.8 | COc1cccc(CCc2ccccc2OCc2ccccc2)c1 |  |  |  |  | 8 | inactive | 19
10 | 5 | 5 |  | 100 | c1ccc(CCc2ccccc2OCc2ccccn2)cc1 |  |  |  |  | 8 | inactive | 15
